Measurements published in patent US20150125546A1, “COMBINATION THERAPY FOR TREATING PULMONARY HYPERTENSION” (Gilead Sciences, Inc., priority 2013, published 2015).
Read-outs that look alike come from different tables or passages of the source. Ends that are not written are not given here.

What was measured:
[1] = test system: cGMP synthesis in isolated intrapulmonary arteries; experiment: cGMP content in isolated rat intrapulmonary arteries; settings: for ET-1-stimulated cGMP synthesis in the presence of bosentan / ET-1 plus riociguat-stimulated cGMP synthesis in the presence of bosentan: 100 nM bosentan; for ET-1-stimulated cGMP synthesis in the presence of bosentan: 8 nM ET-1; for ET-1 plus riociguat-stimulated cGMP synthesis in the presence of bosentan: 8 nM ET-1 plus 30 nM riociguat
[2] = test system: phosphorylation of MLC2 by MLCK; experiment: ET-1-stimulated phosphorylation of MLC2 by MLCK in rat pulmonary arteries; settings: qualitative (FIG. 10)
From the text: Further, ambrisentan and riociguat attenuated ET-1 stimulated phosphorylation of MLC2 by MLCK in rat pulmonary arteries (FIG. 10).

[3] = test system: endothelin-1 (ET-1)-constricted intrapulmonary arteries isolated from rats; experiment: relaxation of ET-1-induced contraction of isolated rat intrapulmonary arterial rings; settings: for relaxation of ET-1-constricted intrapulmonary arteries: 8 nM ET-1; for effect on potency of the other drug to relax ET-1 constricted rat pulmonary arteries: qualitative (FIG. 6, FIG. 7)
ETA receptor = target: T1, ETA receptor (Homo sapiens, UniProt P25101); settings: background statement; read-out: affinity for the ETA receptor; cited from earlier work
T1 sequence (P25101 21-427): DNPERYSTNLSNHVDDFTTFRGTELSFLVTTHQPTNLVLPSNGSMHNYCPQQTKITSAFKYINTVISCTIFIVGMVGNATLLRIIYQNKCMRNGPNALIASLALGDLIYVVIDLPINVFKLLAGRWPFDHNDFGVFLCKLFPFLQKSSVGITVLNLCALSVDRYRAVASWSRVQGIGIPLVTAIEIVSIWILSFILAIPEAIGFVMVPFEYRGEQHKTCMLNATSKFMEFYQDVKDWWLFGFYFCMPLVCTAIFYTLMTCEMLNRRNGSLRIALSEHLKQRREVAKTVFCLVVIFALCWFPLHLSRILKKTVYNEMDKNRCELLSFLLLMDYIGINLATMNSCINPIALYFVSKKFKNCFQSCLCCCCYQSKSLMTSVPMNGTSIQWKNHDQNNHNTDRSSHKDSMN

[4] = 30 nM alone, another run (FIG. 3, FIG. 4)
[5] = 30 nM alone, first run (FIG. 2), mean±SEM

COC(=O)[C@@H](N)CCCN=C(N)N[N+](=O)[O-].Cl [L-NAME]
blocking of ET-1 and its combination with riociguat to stimulate cGMP synthesis [1]: significantly blocked

COC(c1ccccc1)(c1ccccc1)[C@H](Oc1nc(C)cc(C)n1)C(=O)O [ambrisentan, (2S)-2-[(4,6-dimethylpyrimidin-2-yl)oxy]-3-methoxy-3,3-diphenylpropanoic acid]
blocking of ET-1 and its combination with riociguat to stimulate cGMP synthesis ([1]; qualitative): but not ambrisentan, significantly blocked
effect on ET-1 stimulated phosphorylation of MLC2 by MLCK [2]: attenuated
relaxation of ET-1-constricted intrapulmonary arteries ([3]; 10 nM alone, another run (FIG. 3), mean±SEM): 28.5±6.4%
relaxation of ET-1-constricted intrapulmonary arteries ([3]; 10 nM alone, first run (FIG. 2), mean±SEM): 29±6%
effect on potency of the other drug to relax ET-1 constricted rat pulmonary arteries [3]: increased the potency of riociguat
Ki (ETA receptor): ~0.012 nM

COc1ccccc1Oc1c(NS(=O)(=O)c2ccc(C(C)(C)C)cc2)nc(-c2ncccn2)nc1OCCO [bosentan]
ET-1-stimulated cGMP synthesis in the presence of bosentan ([1]; another run (FIG. 9)): 36 pmol/g tissue
ET-1-stimulated cGMP synthesis in the presence of bosentan ([1]; first run): 21±3 pmol/g tissue
ET-1 plus riociguat-stimulated cGMP synthesis in the presence of bosentan ([1]; another run (FIG. 9)): 97 pmol/g tissue
ET-1 plus riociguat-stimulated cGMP synthesis in the presence of bosentan ([1]; first run): 37±3 pmol/g tissue
blocking of ET-1 and its combination with riociguat to stimulate cGMP synthesis ([1]; qualitative): significantly blocked
relaxation of ET-1-constricted intrapulmonary arteries ([3]; 100 nM alone, another run (FIG. 4)): 19.8%
relaxation of ET-1-constricted intrapulmonary arteries ([3]; 100 nM alone, first run (FIG. 2), mean±SEM): 23±3%

CCCNS(=O)(=O)Nc1ncnc(OCCOc2ncc(Br)cn2)c1-c1ccc(Br)cc1 [macitentan]
relaxation of ET-1-constricted intrapulmonary arteries [3, 4]: 30.1%
relaxation of ET-1-constricted intrapulmonary arteries [3, 5]: 30±6%

COC(=O)N(C)c1c(N)nc(-c2nn(Cc3ccccc3F)c3ncccc23)nc1N [riociguat, methyl (4,6-diamino-2-(1-(2-fluorobenzyl)-1H-pyrazolo[3,4-b]pyridin-3-yl)pyrimidin-5-yl)(methyl)carbamate]
content of cGMP ([1]; 10 nM ET-1 and 30 nM riociguat in combination): 96±7 pmol/g tissue
content of cGMP ([1]; 30 nM riociguat alone): 34±5 pmol/g tissue
effect on ET-1-stimulated cGMP production ([1]; qualitative (FIG. 8)): potentiated ET-1-stimulated cGMP production
effect on ET-1 stimulated phosphorylation of MLC2 by MLCK [2]: attenuated
relaxation of ET-1-constricted intrapulmonary arteries [3, 4]: 23.2±6.5%
relaxation of ET-1-constricted intrapulmonary arteries [3, 5]: 23±3%
effect on potency of the other drug to relax ET-1 constricted rat pulmonary arteries [3]: increased the potency of ambrisentan

Endothelin-1 (CSCSSLMDKECVYFCHLDIIW; ends and bridges not checked; cysteine pairing not given here; UniProt P05305 53-73, looked up) [ET-1]
content of cGMP ([1]; 10 nM ET-1 alone): 37±4 pmol/g tissue
